Test results published in ChEMBL document CHEMBL3244346, “Synthesis of spiro[isobenzofuran-1(3H),4'-piperidines] as potential central nervous system agents. 4. Central nervous system depressants” (J Med Chem, 1978).
Calls of active or inactive are those of the source. The calls are words filed in the database; no cut-off is given here.

Assays:
Rattus norvegicus [1] = experiment: Non-specific toxicity in ip dosed Wistar rat assessed as inhibition of amphetamine-induced circling administered 60 mins prior to amphetamine challenge; type: organism-based; conditions: in vivo, 1 h
Rattus norvegicus [2] = experiment: Neuroleptic activity in ip dosed Long-Evans rat assessed as increase in escape failure; type: functional
Canis familiaris [3] = experiment: Non-specific toxicity in po dosed Beagle dog assessed as inhibition of apomorphine hydrochloride-induced emesis; type: organism-based, Canis lupus familiaris; conditions: in vivo
Rattus norvegicus [4] = experiment: Neuroleptic activity in ip dosed Long-Evans rat assessed as inhibition of pole-climb avoidance; type: functional
Rattus norvegicus [5] = experiment: Neuroleptic activity in ip dosed Sprague-Dawley rat assessed as inhibition of Sidman avoidance measured for 4 to 6 hrs; type: functional
Rattus norvegicus [6] = experiment: Neuroleptic activity in po dosed Sprague-Dawley rat assessed as inhibition of Sidman avoidance measured for 4 to 6 hrs; type: functional
Canis familiaris [7] = experiment: Ratio of compound ED50 to haloperidol ED50 for non-specific toxicity in po dosed Beagle dog assessed as inhibition of apomorphine hydrochloride-induced emesis; type: organism-based, Canis lupus familiaris; conditions: in vivo
Canis familiaris [8] = experiment: Non-specific toxicity in Beagle dog assessed as inhibition of apomorphine hydrochloride-induced emesis at 0.5 mg/kg, po; type: organism-based; design: dose 0.5 mg/kg, route oral; conditions: Canis lupus familiaris
Rattus norvegicus [9] = experiment: Non-specific toxicity in Wistar rat assessed as inhibition of apomorphine hydrochloride-induced stereotypy at 25 mg/kg, sc administered 1 hr prior to apomorphine hydrochloride challenge measured after 5 to 20 mins; type: organism-based; design: dose 25 mg/kg, route subcutaneous; conditions: in vivo
Rattus norvegicus [10] = experiment: Non-specific toxicity in ip dosed Wistar rat assessed as inhibition of d-amphetamine sulfate-induced stereotypy administered 1 hr prior to d-amphetamine sulfate challenge measured after 55 to 65 mins; type: organism-based; conditions: in vivo
Squirrel monkey [11] = experiment: Neuroleptic activity in squirrel monkey assessed as inhibition of Sidman avoidance at 2.5 mg/kg, po measured for 4 hrs; type: functional; conditions: Saimiri sciureus, in Primates
Squirrel monkey [12] = experiment: Neuroleptic activity in squirrel monkey assessed as inhibition of Sidman avoidance at 10 mg/kg, po measured for 4 hrs; type: functional; conditions: Saimiri sciureus, in Primates
Rattus norvegicus [13] = experiment: Neuroleptic activity in po dosed Long-Evans rat assessed as increase in escape failure; type: functional
Squirrel monkey [14] = experiment: Neuroleptic activity in squirrel monkey assessed as inhibition of Sidman avoidance at 20 mg/kg, po measured for 4 hrs; type: functional; conditions: Saimiri sciureus, in Primates
Squirrel monkey [15] = experiment: Neuroleptic activity in squirrel monkey assessed as inhibition of Sidman avoidance at 20 mg/kg, po measured for 4 hrs in presence of anticholinergic agent benztropine; type: functional, organism-based; design: dose 20 mg/kg; conditions: Saimiri sciureus
Rattus norvegicus [16] = experiment: Neuroleptic activity in po dosed Long-Evans rat assessed as inhibition of pole-climb avoidance; type: functional
Squirrel monkey [17] = experiment: Neuroleptic activity in squirrel monkey assessed as inhibition of Sidman avoidance at 5 mg/kg, po measured for 4 hrs; type: functional; conditions: Saimiri sciureus, in Primates
Squirrel monkey [18] = experiment: Neuroleptic activity in squirrel monkey assessed as inhibition of Sidman avoidance at 0.75 mg/kg, po measured for 4 hrs; type: functional; conditions: Saimiri sciureus, in Primates
Squirrel monkey [19] = experiment: Neuroleptic activity in squirrel monkey assessed as inhibition of Sidman avoidance at 1 mg/kg, po measured for 4 hrs; type: functional; conditions: Saimiri sciureus, in Primates
Rattus norvegicus [20] = experiment: Non-specific toxicity in sc dosed Wistar rat assessed as inhibition of apomorphine hydrochloride-induced stereotypy administered 1 hr prior to apomorphine hydrochloride challenge measured after 5 to 20 mins; type: organism-based; conditions: in vivo
Rattus norvegicus [21] = species: Rattus norvegicus; experiment: animal or person; conditions: Sprague-Dawley, po, read-out: INH
Description: Neuroleptic activity in Sprague-Dawley rat assessed as inhibition of Sidman avoidance at 1.25 mg/kg, po relative to control

Rattus norvegicus [22] = experiment: Increase in amphetamine-induced circling in Wistar rat at 5 mg/kg, ip administered 60 mins prior to amphetamine challenge; type: functional; conditions: route intraperitoneal
Rattus norvegicus [23] = experiment: Neuroleptic activity in Long-Evans rat assessed as inhibition of pole-climb avoidance at 5 mg/kg, ip relative to control; type: functional; conditions: route intraperitoneal
Rattus norvegicus [24] = experiment: Neuroleptic activity in Sprague-Dawley rat assessed as inhibition of Sidman avoidance at 20 mg/kg, ip relative to control; type: functional; conditions: route intraperitoneal

Compound: O=C(CCCN1CCC2(CC1)OC(c1ccccc1)c1ccc(F)cc12)c1ccc(F)cc1 (configuration not stated)
- ED50 (Rattus norvegicus [1]): 4.6 mg/kg
- ED50 (Rattus norvegicus [2]): 31.1 mg/kg
- ED50 (Canis familiaris [3]): 0.047 mg/kg
- ED50 (Rattus norvegicus [4]): 0.95 mg/kg
- ED50 (Rattus norvegicus [5]): 2.7 mg/kg

Compound: COc1ccc(C2OC3(CCN(CCCC(=O)c4ccc(F)cc4)CC3)c3ccccc32)cc1 (configuration not stated)
- ED50 (Rattus norvegicus [1]): 10.2 mg/kg
- ED50 (Rattus norvegicus [2]): > 40 mg/kg
- ED50 (Canis familiaris [3]): 0.16 mg/kg
- ED50 (Rattus norvegicus [4]): 17.2 mg/kg
- ED50 (Rattus norvegicus [6]): 3 mg/kg

Compound: O=C(CCCN1CCC2(CC1)OC(c1ccc(F)cc1)c1ccc(F)cc12)c1ccc(F)cc1 (configuration not stated)
- Ratio ED50 (Canis familiaris [7]): 10
- ED50 (Rattus norvegicus [1]): 9.7 mg/kg
- ED50 (Rattus norvegicus [2]): > 40 mg/kg
- inhibition at 0.5 mg/kg (Canis familiaris [8]): 50%
- ED50 (Rattus norvegicus [4]): 18.6 mg/kg
- ED50 (Rattus norvegicus [6]): 2.2 mg/kg

Compound: COc1ccc2c(c1)C(c1ccccc1)OC21CCN(CCCC(=O)c2ccc(F)cc2)CC1 (configuration not stated)
- Activity (Rattus norvegicus [9]): Non-toxic
- Ratio ED50 (Canis familiaris [7]): 10
- ED50 (Rattus norvegicus [1]): 9.9 mg/kg
- ED50 (Rattus norvegicus [2]): > 40 mg/kg
- ED50 (Rattus norvegicus [10]): 6.97 mg/kg
- inhibition in vivo at 2.5 mg/kg (Squirrel monkey [11]): 29%
- ED50 (Canis familiaris [3]): > 1 mg/kg
- ED50 (Rattus norvegicus [4]): 9.8 mg/kg
- ED50 (Rattus norvegicus [5]): 9.5 mg/kg

Compound: COc1ccc2c(c1)C1(CCN(CCCC(=O)c3ccc(F)cc3)CC1)OC2c1ccccc1 (configuration not stated)
- inhibition in vivo at 10 mg/kg (Squirrel monkey [12]): 77%
- ED50 (Rattus norvegicus [6]): > 10 mg/kg

Compound: CCCC(C)C1(CC)C(=O)N=C([O-])NC1=O.[Na+] (configuration not stated) [PENTOBARBITAL SODIUM]
- ED50 (Rattus norvegicus [2]): 24.1 mg/kg
- ED50 (Rattus norvegicus [4]): 23.7 mg/kg

Compound: O=C(CCCN1CCC2(CC1)OC(c1ccc(F)cc1)c1ccccc12)c1ccc(F)cc1 (configuration not stated)
- Activity (Rattus norvegicus [9]): Non-toxic
- Ratio ED50 (Canis familiaris [7]): 10
- ED50 (Rattus norvegicus [1]): 11.9 mg/kg
- ED50 (Rattus norvegicus [13]): 16.2 mg/kg
- inhibition in vivo at 10 mg/kg (Squirrel monkey [12]): 17%
- inhibition in vivo at 20 mg/kg (Squirrel monkey [14]): 90%
- ED50 (Rattus norvegicus [10]): 11.8 mg/kg
- inhibition (Squirrel monkey [15]): inactive
- ED50 (Rattus norvegicus [16]): 4.3 mg/kg
- ED50 (Canis familiaris [3]): > 5 mg/kg
- inhibition in vivo at 5 mg/kg (Squirrel monkey [17]): 21%
- ED50 (Rattus norvegicus [6]): 3.7 mg/kg

Compound: CN1C(=O)CN=C(c2ccccc2)c2cc(Cl)ccc21 [DIAZEPAM]
- ED50 (Rattus norvegicus [2]): 24.5 mg/kg
- ED50 (Rattus norvegicus [4]): 13.4 mg/kg

Compound: O=C(CCCN1CCC(O)(c2ccc(Cl)cc2)CC1)c1ccc(F)cc1 [HALOPERIDOL]
- inhibition in vivo at 0.75 mg/kg (Squirrel monkey [18]): 2%
- ED50 (Rattus norvegicus [1]): 0.1 mg/kg
- ED50 (Rattus norvegicus [2]): 7.3 mg/kg
- inhibition in vivo at 1 mg/kg (Squirrel monkey [19]): 30%
- ED50 (Rattus norvegicus [20]): 0.2 mg/kg
- ED50 (Rattus norvegicus [10]): 0.21 mg/kg
- inhibition in vivo at 1.25 mg/kg (Rattus norvegicus [21]): 50%
- ED50 (Canis familiaris [3]): 0.06 mg/kg
- ED50 (Rattus norvegicus [4]): 0.53 mg/kg
- ED50 (Rattus norvegicus [5]): 0.35 mg/kg

Compound: O=C(CCCN1CCC2(CC1)OC(c1ccc(Cl)cc1)c1ccccc12)c1ccc(F)cc1 (configuration not stated)
- Activity (Rattus norvegicus [22]): 47%
- ED50 (Canis familiaris [3]): > 10 mg/kg
- ED50 (Rattus norvegicus [4]): > 20 mg/kg
- ED50 (Rattus norvegicus [5]): > 10 mg/kg

Compound: CN(C)CCCN1c2ccccc2Sc2ccc(Cl)cc21 [CHLORPROMAZINE]
- ED50 (Rattus norvegicus [1]): 2.2 mg/kg
- ED50 (Rattus norvegicus [2]): 9 mg/kg
- ED50 (Rattus norvegicus [20]): 5.4 mg/kg
- ED50 (Rattus norvegicus [10]): 1.7 mg/kg
- inhibition in vivo at 2.5 mg/kg (Squirrel monkey [11]): 11%
- ED50 (Canis familiaris [3]): 12.8 mg/kg
- ED50 (Rattus norvegicus [4]): 5.2 mg/kg
- inhibition in vivo at 5 mg/kg (Squirrel monkey [17]): 54%
- ED50 (Rattus norvegicus [6]): 7.5 mg/kg
- ED50 (Rattus norvegicus [5]): 2.3 mg/kg

Compound: O=C(CCCN1CCC2(CC1)OC(c1ccccc1)c1ccc(Cl)cc12)c1ccc(F)cc1 (configuration not stated)
- ED50 (Rattus norvegicus [1]): 3.5 mg/kg
- inhibition in vivo at 5 mg/kg (Rattus norvegicus [23]): 47%
- ED50 (Canis familiaris [3]): 0.05 mg/kg
- ED50 (Rattus norvegicus [5]): 2.3 mg/kg

Compound: O=C(CCCN1CCC2(CC1)OC(c1ccccc1)c1ccccc12)c1ccc(F)cc1 (configuration not stated)
- ED50 (Rattus norvegicus [1]): 2.6 mg/kg
- ED50 (Rattus norvegicus [2]): > 40 mg/kg
- ED50 (Canis familiaris [3]): 0.15 mg/kg
- ED50 (Rattus norvegicus [4]): 8.6 mg/kg
- ED50 (Rattus norvegicus [6]): 4.8 mg/kg
- ED50 (Rattus norvegicus [5]): 6.2 mg/kg

Compound: CSc1ccc2c(c1)N(CCC1CCCCN1C)c1ccccc1S2 (configuration not stated) [THIORIDAZINE]
- ED50 (Rattus norvegicus [1]): 13.3 mg/kg
- ED50 (Rattus norvegicus [2]): > 60 mg/kg
- ED50 (Rattus norvegicus [10]): 15.8 mg/kg
- inhibition in vivo at 20 mg/kg (Rattus norvegicus [24]): 15%
- ED50 (Rattus norvegicus [4]): 13.8 mg/kg
